Source: patent US11413278B2, “Compounds and methods for promoting stress resistance” (priority 2015, dated 2022)
Where two headings read alike, the source gives them in different places.

Columns and labels:
[1] = tested on: WI-38 cells; assay: Propidium iodide (PI) cell-death imaging upon H2O2 stress; assay type: cell-based, human; conditions: for Assay 7: H2O2-resistant, at 10 uM, validated by propidium iodide (PI) cell-death imaging: w/H2O2, 3 hrs/4 hrs/5 hrs, YES/NO; for cytotoxicity at 10 µM: Homo sapiens, WI-38
[2] = biological target: T1, human PARP1 (Homo sapiens, UniProt P09874); assay: PARP inhibitor assay (HT Fluorescent Homogeneous PARP Inhibition Assay Kit); assay type: biochemical; conditions: score
T1 construct: purchased Trevigen
Summary of the method: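 Compounds (10 μM final) incubated 30 min, room temperature, dark, with human PARP1, nicotinamide adenine dinucleotide and activated DNA. Fluorescent signal generated by 1 hr cycling with diaphorase and resazurin, then reaction stopped.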

[3] = tested on: WI-38 cells; assay: CdCl2 (cadmium) resistance assay; assay type: cell-based, human; conditions: for fold induction at 10 µM: Homo sapiens, 12 h, normalized ATP measurement; for Assay 4: H2O2- & Cd-resistant / Assay 2: Cadmium-resistant: YES/NO; for Assay 2: Cadmium-resistant: * indicates partial
Summary of the method: (§1)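 Resistance to CdCl2 or MMS stress (12 h exposure) was scored in WI-38 fibroblasts pretreated with compound at 0.25–20 μM final, five doses, technical triplicates. MMS plates had compound added 24 h before MMS, after a shift to serum-free DMEM+2% BSA. Significance came from a global variance t-test over two independent runs.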

[4] = tested on: WI-38 cells; assay: MMS resistance assay; assay type: cell-based, human; conditions: for fold induction at 10 µM: Homo sapiens, 12 h, normalized ATP measurement; for Assay 3: MMS-resistant / Assay 5: Triple resistant: YES/NO; for Assay 3: MMS-resistant: * indicates partial; for Assay 5: Triple resistant: H2O2, cadmium and MMS
Summary of the method: as §1

[5] = tested on: human dermal fibroblast (HDF) primary cells; assay: H2O2-resistance in primary human dermal fibroblasts; assay type: cell-based; conditions: for fold induction at 10 µM: Homo sapiens; for Assay 6: H2O2-resistant, at 10 uM, human dermal fibroblast (HDF) primary cells: YES/NO
[6] = tested on: PC12 cells expressing poly(Q)103-Htt-EGFP; assay: Poly(Q) toxicity & viability analysis (cellular model of Huntington's disease); assay type: cell-based, rat; conditions: for Viability of PC12 cells upon induction of toxic poly(Q)103-Htt-EGFP aggregates: 2.5 μM, 5 μM, 10 μM and 20 μM; for Assay 20: Huntington's poly-Q toxicity attenuation: 10 uM, YES/NO; for M = Huntington's poly-Q toxicity attenuation: score; for K = Huntington's poly-Q toxicity attenuation: summary score
Summary of the method: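 Readout is CellTiter-Glo ATP content measured after 48 hrs. Cells are a PC12 line stably expressing inducible poly(Q)103-Htt-EGFP, where induction produces toxic aggregates.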

[7] = tested on: WI-38 cells; conditions: for Percentage of propidium iodide-positive dead cells (no H2O2 stress treatment), at 10 uM: negative control 0.41% ± 0.23%
Description: WI-38 cells were seeded on 384-well plates for 24 hrs and then incubated with small molecules for 24 hrs. […] Images were collected on an INCell Analyzer 2000 (GE) and analyzed with the Developer software.

[8] = Summary score for characterization of 38 core set hits; conditions: for D = Triple resistant: 2-point score, multiplex resistance (cadmium, MMS, H2O2); for S = Sum of Negative scores: human; for C = H2O2- & Cd-resistant: score, resistance to both H2O2 and cadmium
Summary of the method: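 First, H2O2-resistance screen hits were characterized for longevity-related phenotypes, and each major one (multiplex resistance, FOXO3/NRF2 activation, mTOR down-regulation) received 2 points. Next, C. elegans lifespan extension was scored 0 to 2 from 4 to 6 trials. Finally, human-cell genotoxicity or toxicity subtracted a point.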

[9] = H2O2 3 hrs, 10 uM, n = 6, negative control 5.44% ± 0.79%, read-out: Percentage of propidium iodide-positive dead cells (under H2O2 stress treatment), 3 hrs
[10] = H2O2 4 hrs, 10 uM, n = 6, negative control 16.81% ± 1.42%, read-out: Percentage of propidium iodide-positive dead cells (under H2O2 stress treatment), 4 hrs
[11] = H2O2 5 hrs, 10 uM, n = 6, negative control 22.50% ± 1.53%, read-out: Percentage of propidium iodide-positive dead cells (under H2O2 stress treatment), 5 hrs
[12] = pre-treatment at 10 uM, 3.5 hours of H2O2, DMSO control 27.4% ± 6.5%, */**/*** = reduced by one/two/three standard deviations, read-out: Percentage of propidium iodide-positive dead cells (under H2O2 stress treatment), at 10 uM
[13] = Exp. 1, WI-38 cells, read-out: Exp. 1, under Cd2Cl2 stress treatment, at 10 uM (fold change)
[14] = Exp. 2, WI-38 cells, read-out: Exp. 2, under Cd2Cl2 stress treatment, at 10 uM (fold change)
[15] = WI-38 cells, 10 μM, both stressors
[16] = score in summary of 38 core set hits
[17] = Exp. 1, WI-38 cells, read-out: Exp. 1, under MMS stress treatment, at 10 uM (fold change)
[18] = Exp. 2, WI-38 cells, read-out: Exp. 2, under MMS stress treatment, at 10 uM (fold change)
[19] = Experiment 1, HDF cells, read-out: Experiment 1, HDF cells (under H2O2 stress treatment), at 10 uM (fold change)
[20] = Experiment 2, HDF cells, read-out: Experiment 2, HDF cells (under H2O2 stress treatment), at 10 uM (fold change)

T1 sequence (P09874 whole entry): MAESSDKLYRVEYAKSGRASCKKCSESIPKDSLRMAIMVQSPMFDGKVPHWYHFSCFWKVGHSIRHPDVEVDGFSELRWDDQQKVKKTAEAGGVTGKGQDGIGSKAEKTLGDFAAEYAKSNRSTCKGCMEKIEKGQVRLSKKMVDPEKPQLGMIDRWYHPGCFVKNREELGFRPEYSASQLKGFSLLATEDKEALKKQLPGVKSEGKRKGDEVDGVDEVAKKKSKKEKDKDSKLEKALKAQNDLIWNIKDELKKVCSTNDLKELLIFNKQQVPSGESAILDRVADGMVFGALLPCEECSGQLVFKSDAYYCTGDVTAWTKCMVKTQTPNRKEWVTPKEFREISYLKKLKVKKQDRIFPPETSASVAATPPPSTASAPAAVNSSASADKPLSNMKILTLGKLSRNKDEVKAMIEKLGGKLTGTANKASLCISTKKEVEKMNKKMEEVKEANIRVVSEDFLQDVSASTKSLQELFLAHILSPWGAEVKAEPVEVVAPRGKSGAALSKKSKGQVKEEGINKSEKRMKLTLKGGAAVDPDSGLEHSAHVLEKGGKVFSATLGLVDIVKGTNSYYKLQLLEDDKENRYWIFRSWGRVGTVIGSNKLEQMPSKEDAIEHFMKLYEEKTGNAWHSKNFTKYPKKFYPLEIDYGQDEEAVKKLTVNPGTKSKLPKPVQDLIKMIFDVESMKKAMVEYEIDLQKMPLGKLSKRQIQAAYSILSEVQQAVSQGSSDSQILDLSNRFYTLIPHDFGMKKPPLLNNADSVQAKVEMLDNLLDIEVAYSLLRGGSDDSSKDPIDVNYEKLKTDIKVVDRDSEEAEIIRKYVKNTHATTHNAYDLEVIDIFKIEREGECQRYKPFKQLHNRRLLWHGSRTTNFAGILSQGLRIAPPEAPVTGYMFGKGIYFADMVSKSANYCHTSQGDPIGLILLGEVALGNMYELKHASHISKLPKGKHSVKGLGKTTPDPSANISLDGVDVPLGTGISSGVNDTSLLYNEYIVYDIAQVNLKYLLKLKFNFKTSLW

| Structure (SMILES) | Assay 7: H2O2-resistant, at 10 uM, validated by propidium iodide (PI) cell-death imaging ([1]; 10 uM) | cytotoxicity at 10 µM [1, 9] | cytotoxicity at 10 µM [1, 12] | L = PARP inhibition [2] | fold induction at 10 µM [3, 13] | A = Cadmium resistant [3, 16] | A = Cadmium resistant ([3]; summary score) | C = H2O2- & Cd-resistant ([3]; summary score) | B = MMS resistant [4, 16] | B = MMS resistant ([4]; summary score) | D = Triple resistant ([4]; summary score) | fold induction at 10 µM [5, 19] | fold induction at 10 µM [5, 20] | Assay 6: H2O2-resistant, at 10 uM, human dermal fibroblast (HDF) primary cells [5] | M = Huntington's poly-Q toxicity attenuation [6] | K = Huntington's poly-Q toxicity attenuation [6] | Percentage of propidium iodide-positive dead cells (no H2O2 stress treatment), at 10 uM [7] | D = Triple resistant [8] | S = Sum of Negative scores [8] | C = H2O2- & Cd-resistant [8] | also measured |
| --- | --- | --- | --- | --- | --- | --- | --- | --- | --- | --- | --- | --- | --- | --- | --- | --- | --- | --- | --- | --- | --- |
| NS(=O)(=O)c1ccc(NC(=O)c2ccc([N+](=O)[O-])o2)cc1 [Gr-1A] | YES | 1.44% | 22.6% | 0 | 1.46 | 1 | 1 | 1 | 0 | 1 | 2 | 3.89 | 52.5 | YES | 1 | 1 | 0.79% ± 0.36%, | 0 | 1 | 1 | cytotoxicity at 10 µM [1, 10]: 3.18%; cytotoxicity at 10 µM [1, 11]: 7.49%; CdCl2-resistant [3]: YES; H2O2- & CdCl2-resistant [3]: YES; fold induction at 10 µM [3, 14]: 1.45; CdCl2-resistant ([3]; WI-38 cells, 10 μM): YES; H2O2- & CdCl2-resistant [3, 15]: YES; Assay 4: H2O2- & Cd-resistant [3]: YES; Assay 2: Cadmium-resistant [3]: YES; fold induction at 10 µM [4, 17]: 0.72; fold induction at 10 µM [4, 18]: 2.42; Assay 3: MMS-resistant [4]: YES; Assay 5: Triple resistant [4]: YES; Viability of PC12 cells upon induction of toxic poly(Q)103-Htt-EGFP aggregates [6]: consistently increased the viability; Assay 20: Huntington's poly-Q toxicity attenuation [6]: YES |
| Cc1ccc(S(=O)(=O)Nc2cccc3cccnc23)cc1 [Gr-3B] | YES | 4.63% | 2.6% | 0 | 2.1 | 0 | 0 | 0 | 0 | 0 | 0 | 3.1 | 1.59 | YES | 0 | 0 | 0.47% ± 0.20%, | 0 | 0 | 0 | fold induction at 10 µM [3, 14]: 2.88; fold induction at 10 µM [4, 17]: 1.72; fold induction at 10 µM [4, 18]: 1.33 |
| CNC(=O)/C(C#N)=C/c1c(Oc2ccc(C(C)(C)C)cc2)nc2ccccn2c1=O [Gr-5D] | YES | 3.28% | 6.4% | 0 | – | 0 | 1 | 1 | 0 | 1 | 2 | 0.18 | 2.66 | YES | 0 | 0 | 0.51% ± 0.18%, | 0 | 0 | 0 | Assay 4: H2O2- & Cd-resistant [3]: YES; Assay 2: Cadmium-resistant [3]: YES; Assay 3: MMS-resistant [4]: YES; Assay 5: Triple resistant [4]: YES |
| CCc1ccccc1NC(=O)c1ccc([N+](=O)[O-])o1 [Gr-1C] | YES | 2.49% | 7.8% | 0 | 7.9 | 1 | 1 | 1 | 0 | 0 | 0 | 15.2 | 49.1 | YES | 1 | 1 | 3.51% ± 1.28%, | 0 | 1 | 1 | cytotoxicity at 10 µM [1, 10]: 3.1%; cytotoxicity at 10 µM [1, 11]: 4.05%; CdCl2-resistant [3]: YES; H2O2- & CdCl2-resistant [3]: YES; fold induction at 10 µM [3, 14]: 9.86; CdCl2-resistant ([3]; WI-38 cells, 10 μM): YES; H2O2- & CdCl2-resistant [3, 15]: YES; Assay 4: H2O2- & Cd-resistant [3]: YES; Assay 2: Cadmium-resistant [3]: YES; fold induction at 10 µM [4, 17]: 0.73; fold induction at 10 µM [4, 18]: 0.39; Viability of PC12 cells upon induction of toxic poly(Q)103-Htt-EGFP aggregates [6]: consistently increased the viability; Assay 20: Huntington's poly-Q toxicity attenuation [6]: YES; PI cell-death imaging without H2O2 (indicating potential toxicity) ([7]; Assay 8(k), without H2O2, at 10 uM): YES; Percentage of propidium iodide-positive (dead) cells under normal conditions (qualitative) ([7]; WI-38, no H2O2): increased the percentage; PI-positive dead cells under normal conditions ([7]; WI-38, no H2O2, control 0.4±0.2%): 3.5±1.3% |
